What was measured:
Assay type in all cases: in vivo
Monochoria vaginalis [1] = test: Test Example 11: herbicidal effect test by soil treatment in paddy field; details: 120 g/10a active ingredient, 14 days after treatment
Method in brief: (§1)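 Dry weight at day 14 relative to untreated controls gives the suppression rate; duplicate pots. Treatment: 120 g a.i./10 are into paddy water at sowing.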

Lindernia pyxidaria [2] = test: as above; details: 120 g/10a active ingredient, 14 days after treatment
Method in brief: as §1

Echinochloa crus-galli [3] = test: as above; details: 120 g/10a active ingredient, 14 days after treatment
Method in brief: as §1

Scirpus juncoides [4] = test: as above; details: 120 g/10a active ingredient, 14 days after treatment
Method in brief: as §1

Monochoria vaginalis [5] = test: Test Example 12: herbicidal effect test by treatment during growing period in paddy field; details: 120 g/10a; treatment seven days after sowing in flooded paddy pot; assessed 14 days after treatment
Method in brief: (§2)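 Water-diluted emulsifiable concentrate added dropwise to flooded pots (~3 cm water) 7 d after sowing; rate 120 g active ingredient per 10 are. Weeds grown from 30 seeds each in puddled paddy soil under greenhouse conditions. Dry-weight suppression rate relative to untreated plots determined 14 d after treatment, duplicates.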

Lindernia pyxidaria [6] = test: as above; details: 120 g/10a; treatment seven days after sowing in flooded paddy pot; assessed 14 days after treatment
Method in brief: as §2

Echinochloa crus-galli [7] = test: as above; details: 120 g/10a; treatment seven days after sowing in flooded paddy pot; assessed 14 days after treatment
Method in brief: as §2

Scirpus juncoides [8] = test: as above; details: 120 g/10a; treatment seven days after sowing in flooded paddy pot; assessed 14 days after treatment
Method in brief: as §2

Row | Structure (SMILES) | Weed suppression rate (%) Monochoria vaginalis (Monochoria vaginalis [1]) [%] | Weed suppression rate (%) Lindemia pyxidaria (Lindernia pyxidaria [2]) [%] | Weed suppression rate (%) Echinochloa crus-galli (Echinochloa crus-galli [3]) [%] | Weed suppression rate (%) Scirpus juncoides (Scirpus juncoides [4]) [%] | Weed suppression rate (%) Monochoria vaginalis (Monochoria vaginalis [5]) [%] | Weed suppression rate (%) Lindemia pyxidaria (Lindernia pyxidaria [6]) [%] | Weed suppression rate (%) Echinochloa crus-galli (Echinochloa crus-galli [7]) [%] | Weed suppression rate (%) Scirpus juncoides (Scirpus juncoides [8]) [%]
1 | Cc1cc(C)c(S(=O)(=O)n2ncn(C(=O)N(c3ccccc3F)C(C)C)c2=O)c(C)c1 [Compound 11-853] | 80 | 90 | 100 | 90 | 80 | 80 | 90 | 90
2 | CC(C)N(C(=O)n1cnn(S(=O)(=O)c2ccccc2Cl)c1=O)c1ccccc1F [Compound 11-502] | 80 | 80 | 90 | 90 | 80 | 80 | 90 | 90
3 | CC(C)N(C(=O)n1cnn(S(=O)(=O)c2ccc(F)cc2)c1=O)c1ccc(F)c(F)c1F [Compound 11-478] | 100 | 100 | 100 | 100 | 90 | 70 | 100 | 100
4 | Cc1ccc(S(=O)(=O)n2ncn(C(=O)N(c3cccc(F)c3)C(C)C)c2=O)cc1 [Compound 11-628] | 80 | 80 | 90 | 90 | 80 | 80 | 90 | 90
5 | Cc1cc(F)ccc1N(C(=O)n1cnn(S(=O)(=O)c2ccc(Cl)cc2)c1=O)C(C)C [Compound 11-601] | 80 | 80 | 70 | 60 | 70 | 70 | 60 | 60
6 | Cc1cc(C)c(S(=O)(=O)n2ncn(C(=O)N(c3c(F)cc(F)cc3F)C(C)C)c2=O)c(C)c1 [Compound 11-867] | 80 | 100 | 100 | 80 | 80 | 70 | 100 | 80
7 | CC(C)N(C(=O)n1cnn(S(=O)(=O)c2cccc(F)c2)c1=O)c1ccccc1F [Compound 11-428] | 90 | 90 | 90 | 90 | 90 | 90 | 90 | 90
8 | CC(C)N(C(=O)n1cnn(S(=O)(=O)c2ccccc2F)c1=O)c1ccc(Br)cc1Cl [Compound 11-413] | 80 | 90 | 80 | 80 | 70 | 70 | 60 | 70
9 | CC(C)N(C(=O)n1cnn(S(=O)(=O)C(C)C)c1=O)c1cccc(F)c1 [Compound 11-50] | 80 | 80 | 90 | 90 | 80 | 80 | 90 | 90
10 | Cc1ccc(N(C(=O)n2cnn(S(=O)(=O)c3ccc(C(C)(C)C)cc3)c2=O)C(C)C)c(F)c1 [Compound 11-696] | 80 | 80 | 90 | 90 | 80 | 80 | 90 | 90
11 | CC(C)N(C(=O)n1cnn(S(=O)(=O)C2CC2)c1=O)c1c(F)c(F)cc(F)c1F [Compound 11-197] | 70 | 100 | 100 | 100 | 100 | 80 | 100 | 90
12 | Cc1ccc(S(=O)(=O)n2ncn(C(=O)N(c3c(F)cccc3F)C(C)C)c2=O)cc1 [Compound 11-639] | 70 | 100 | 100 | 100 | 70 | 70 | 100 | 70
13 | CC(C)N(C(=O)n1cnn(S(=O)(=O)c2cccs2)c1=O)c1ccc(C#N)cc1Cl [Compound 11-1044] | 90 | 90 | 90 | 90 | 80 | 80 | 90 | 90
14 | Cc1nn(S(=O)(=O)C2CC2)c(=O)n1C(=O)N(c1ccc(F)cc1F)C(C)C [Compound 11-246] | 80 | 80 | 90 | 90 | 80 | 80 | 90 | 90
15 | Cc1cc(F)ccc1N(C(=O)n1cnn(S(=O)(=O)c2cccc(Cl)c2)c1=O)C(C)C [Compound 11-563] | 90 | 100 | 100 | 100 | 80 | 80 | 100 | 100
16 | CC(C)N(C(=O)n1cnn(S(=O)(=O)c2cccc(Cl)c2)c1=O)c1c(F)cc(F)cc1F [Compound 11-554] | 70 | 90 | 100 | 70 | 80 | 80 | 80 | 90
17 | CC(C)N(C(=O)n1cnn(S(=O)(=O)c2ccccc2F)c1=O)c1c(F)cccc1F [Compound 11-404] | 60 | 30 | 100 | 30 | 70 | 70 | 100 | 70
18 | CC(C)N(C(=O)n1cnn(S(=O)(=O)c2ccc(F)cc2)c1=O)c1c(F)cc(F)cc1F [Compound 11-479] | 80 | 100 | 100 | 100 | 80 | 70 | 100 | 80
19 | CC(C)N(C(=O)n1cnn(S(=O)(=O)c2ccccc2)c1=O)c1ccc(Cl)cc1 [Compound 11-361] | 80 | 80 | 90 | 90 | 80 | 80 | 90 | 90
20 | Cc1ccc(N(C(=O)n2cnn(S(=O)(=O)c3ccccc3F)c2=O)C(C)C)c(F)c1 [Compound 11-416] | 80 | 80 | 90 | 90 | 80 | 80 | 90 | 90

Reference: US11076595B2, “1-(n,n-disubstituted carbamoyl) 4-(substituted sulfonyl)triazolin-5-one derivative, 4-(n,n-disubstituted carbamoyl) 1-(substituted sulfonyl)triazolin-5-one derivative, and herbicide containing said derivative as active ingredient” (HOKKO CHEMICAL INDUSTRY CO., LTD., priority 2017, dated 2021)
